Assay: Human HepG2 cell viability assay in 384 well format
Assay type: toxicity, cell-based
Design: dose 125 nL, time 70.5 hour; cytotoxicity at 70.5 h: concentration not given beside the values
Conditions: HepG2 cells, read-out: Inhibition

Compared with `O=C(c1cc(-n2cnnn2)ccc1Cl)N1CCC2(CC1)OCCO2`, `O=C(c1ccc(Cl)cc1F)N1CCC(Cn2cc(CO)nn2)CC1` is higher in cytotoxicity at 70.5 h: -7.22% for the first, -5.57% for the second.

Compared with `Cc1cccc(N(CC(=O)c2ccccc2)C2=NCCCCC2)c1`, `CN(Cc1cc(=O)c(O)co1)C1CCCN(c2ccccc2)C1` (configuration not stated) is higher in cytotoxicity at 70.5 h: -11.4% for the first, 24.6% for the second.

First: Cn1cc(C2CCCN2C(=O)CCCc2nc3ccccc3[nH]2)cn1 (configuration not stated)
Second: CN1CCCC1c1nccnc1-c1ccc(C(=O)O)cc1 (configuration not stated)
The cytotoxicity at 70.5 h of the first is lower: 4.56% for the first, 11% for the second.

Going from `COCC(=O)Nc1ccccc1-c1ccc(=O)n(C)n1` to `CC(C)C(C(=O)NCc1ccccc1-n1cccn1)N(C)C` (configuration not stated), the cytotoxicity at 70.5 h falls from -4.15% to -7.79%.

Going from `Cc1cccc(C2N3CCC4(CC3)c3[nH]c5ccccc5c3CCN24)n1` (configuration not stated) to `Cc1cccc(N2CCc3ncc(CNS(C)(=O)=O)n3CC2)n1`, the cytotoxicity at 70.5 h falls from 5.13% to -11.6%.

Going from `O=C(O)CSc1nnc(-c2ccn[nH]2)n1-c1ccccc1C(F)(F)F` to `OC(CN1CCC(c2ccn[nH]2)CC1)c1ccccc1F` (configuration not stated), the cytotoxicity at 70.5 h falls from -3.95% to -4.73%.

Going from `O=C(O)CCNC(=O)Cc1csc(-c2cccc(Cl)c2)n1` to `O=C(NCc1csc(Br)c1)c1ccncc1`, the cytotoxicity at 70.5 h falls from -14% to -16.8%.

Going from `CC(C)NC(=O)N1CCC[C@H]1C(=O)NCCCc1cccc(F)c1` to `COc1cccc(COC(C)C(=O)NC2CCN(CC(N)=O)CC2)c1` (configuration not stated), the cytotoxicity at 70.5 h falls from -5.95% to -7.36%.

First: Cc1c(CCC(=O)N2CCOC(c3cnccn3)C2)cnn1C (configuration not stated)
Second: c1ccc(C2CCCN2Cc2nc(-c3cnccn3)no2)nc1 (configuration not stated)
The cytotoxicity at 70.5 h of the first is higher: -2.28% for the first, -6.26% for the second.

Compared with `Cn1cc(CN2C[C@@H]3COC[C@]3(CNC(=O)c3ccsc3)C2)cn1`, `CN1CCCn2c(nc(CNC(=O)c3ccsc3)cc2=O)C1` is lower in cytotoxicity at 70.5 h: -5.87% for the first, -15.1% for the second.

First: CC(C)Cc1noc(CN2CCOCC2)n1
Second: Cc1ccc(CN2CCC3(CC2)C(=O)N(CC(C)C)CCN3C)s1
The cytotoxicity at 70.5 h of the first is lower: -0.996% for the first, 22.7% for the second.

First: CCc1sc(C(=O)N2CCC(Nc3ccc(C)nn3)CC2)cc1C
Second: CN1CCN(C(=O)c2nnc3ccc(Cl)cc3n2)CC1
The cytotoxicity at 70.5 h of the first is lower: -14.5% for the first, -10.9% for the second.

Going from `O=C(c1ccsc1)N1CCO[C@@H]2CN(Cc3ccccn3)CC[C@@H]2C1` to `O=C(c1ccc(-n2cccn2)nc1)N1CCCC(n2cccn2)C1` (configuration not stated), the cytotoxicity at 70.5 h falls from 8.56% to -7.62%.

Going from `CCC1CN(CC(=O)NCc2ccco2)CCO1` (configuration not stated) to `CN(Cc1cccnc1)[C@@H]1CN(C(=O)c2ccco2)[C@@H]2CCCO[C@H]12`, the cytotoxicity at 70.5 h falls from 2.02% to -10.7%.

Compared with `Cc1sc(NC(=O)CN(C)CCOc2cccc(F)c2)c(C)c1C`, `CCS(=O)(=O)CC(=O)Nc1c(C)cnn1Cc1cc(F)ccc1F` is higher in cytotoxicity at 70.5 h: -2.66% for the first, 25.7% for the second.

Compared with `CC(C)CN1CC(c2nc(-c3ccsc3)c[nH]2)CC1=O` (configuration not stated), `Cn1c(SCc2noc(-c3ccsc3)n2)nnc1C1CCS(=O)(=O)C1` (configuration not stated) is lower in cytotoxicity at 70.5 h: -2.45% for the first, -4.08% for the second.

Compared with `CCC(=O)N1CCC(Cc2nccnc2Nc2ccccn2)CC1`, `c1cnc(-c2nc(CN3CCC(c4ccn[nH]4)CC3)cs2)nc1` is lower in cytotoxicity at 70.5 h: 20.4% for the first, 0.264% for the second.

Compared with `CC(=O)N1[C@H](Cn2cncn2)C[C@@H]2CN(c3ncc(F)cn3)CC[C@@H]21`, `Fc1ccc(OCCCN2CCCC(Cn3cncn3)C2)cc1` (configuration not stated) is lower in cytotoxicity at 70.5 h: -0.528% for the first, -3.77% for the second.

Going from `CS(=O)(=O)N1C[C@H](C(=O)Nc2cccnc2)C[C@H]2OCC[C@H]21` to `Cc1cccnc1NC(=O)c1ccc(F)c(S(=O)(=O)NC2CC2)c1`, the cytotoxicity at 70.5 h falls from 6.21% to -2.44%.

First: COc1ccc(CN2CCCCC2CNC(=O)OC(C)(C)C)cc1F (configuration not stated)
Second: COc1ccc(N2CCC(N(C)C(=O)C(C)SC)CC2)cc1 (configuration not stated)
The cytotoxicity at 70.5 h of the first is lower: -7.89% for the first, -6.26% for the second.

Compared with `CN(C)c1cc2c(nn1)CCN(C(=O)C1Cc3ccccc3S1)C2` (configuration not stated), `CC(C)N(C)C(=O)C1CCN(Cc2cnc3ccccn23)CC1` is higher in cytotoxicity at 70.5 h: -8.43% for the first, -5.16% for the second.

Going from `c1ccc2c(c1)ccn2CCCNC1CCOC2(CCOCC2)C1` (configuration not stated) to `c1ccc(Cc2noc(-c3ccc(NCC4COCCO4)nc3)n2)cc1` (configuration not stated), the cytotoxicity at 70.5 h falls from 32.9% to -5.85%.

Compared with `Cc1cc(CSCc2ccccn2)on1`, `Cc1ccc(CNC2(Cc3cc(-c4ccccc4)on3)COC2)o1` is higher in cytotoxicity at 70.5 h: -1.54% for the first, -0.988% for the second.

First: Cc1ccc(S(=O)(=O)NC[C@H]2OC[C@@H](NCc3ccccc3)[C@@H]2O)cc1
Second: Cc1cnn(CCNCC(=O)NCCOc2ccc(F)cc2)c1
The cytotoxicity at 70.5 h of the first is lower: -10% for the first, -9.5% for the second.

First: O=C(NCc1cccs1)C1CCN(c2cc(-n3ccnc3)ncn2)CC1
Second: CN(C)CCn1ccnc1C1CCCN(c2cc(N)ncn2)C1 (configuration not stated)
The cytotoxicity at 70.5 h of the first is lower: -0.911% for the first, 23.6% for the second.

Compared with `Fc1ccc(CN2CCc3ncnc(C4CCOC4)c3CC2)cc1` (configuration not stated), `c1csc(-c2noc(CN3CCc4c(ncn4C4CC4)C3)n2)c1` is lower in cytotoxicity at 70.5 h: -5.46% for the first, -14.5% for the second.

Going from `Cc1ccc2c(c1)C(NC1CCN(C)CC1)CCCO2` (configuration not stated) to `CN(Cc1nnc(C2CC2)n1C)C1CCN(CCc2cnn(C)c2)C1` (configuration not stated), the cytotoxicity at 70.5 h rises from 15.4% to 39.7%.

Going from `O=C(C1=CCCC1)N1C[C@@H]2COC[C@]2(COCC2CC2)C1` to `Cc1ccc2c(c1)OC(C)CN2C(=O)c1c[nH]c(C)cc1=O` (configuration not stated), the cytotoxicity at 70.5 h rises from -6.62% to 2.52%.

`Cc1cc(NC(=O)NC(C)(C)c2nc(C)c(C)s2)no1` showed a cytotoxicity at 70.5 h of -8.02%.
